Results: publication PMC5482845 (Scientific Reports, 2017)
Read-outs that look alike come from different tables or passages of the source. Each block holds one molecule with its values, some of them ahead of it.

Legend:
SOAT1 and SOAT2 = system: SOAT1 and SOAT2; parameters: method as in PMID 14617738, PMID 17390588, PMID 16820149, PMID 16730694, PMID 16626720; details: cited from earlier work
SOAT1 [1] = target: T1, SOAT1 (Chlorocebus aethiops, UniProt O77760); assay: Interaction of Biotin-Beau-immobilized beads with SOAT1 protein (SDS-PAGE, Western blotting); assay type: binding, African green monkey; details: microsomes from SOAT1-CHO cells, band at approximately 53 kDa, none from AC29 cells or control beads
T1 construct: expressed in transfected cells; host or cells: CHO cells (AC29, SOAT-deficient)
T1 sequence (O77760 1-550): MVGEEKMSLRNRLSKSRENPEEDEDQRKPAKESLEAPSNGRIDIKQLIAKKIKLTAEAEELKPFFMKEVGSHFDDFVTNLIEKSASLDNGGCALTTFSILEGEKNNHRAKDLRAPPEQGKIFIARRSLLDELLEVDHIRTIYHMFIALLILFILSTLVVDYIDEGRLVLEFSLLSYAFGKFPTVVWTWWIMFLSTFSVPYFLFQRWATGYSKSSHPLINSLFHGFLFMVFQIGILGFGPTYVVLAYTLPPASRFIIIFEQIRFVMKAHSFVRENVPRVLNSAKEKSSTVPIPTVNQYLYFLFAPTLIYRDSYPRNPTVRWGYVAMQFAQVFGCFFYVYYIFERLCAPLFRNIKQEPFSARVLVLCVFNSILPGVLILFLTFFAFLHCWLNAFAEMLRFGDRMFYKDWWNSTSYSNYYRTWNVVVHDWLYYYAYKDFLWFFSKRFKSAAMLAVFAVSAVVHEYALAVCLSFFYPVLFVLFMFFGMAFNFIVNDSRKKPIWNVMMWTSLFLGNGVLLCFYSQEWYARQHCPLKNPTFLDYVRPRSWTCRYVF
Source text: The direct interaction between beauveriolide and SOAT1 was investigated. […] Therefore, Biotin-Beau may be employed as a useful bio-probe to investigate interactions between SOAT1 and beauveriolide. Biotin-Beau was attached to acrylamide-based streptavidin beads, and microsomes prepared from SOAT1-CHO cells and AC29 cells (control, SOAT-deficient CHO cells) were applied to the beads. After washing the beads, bound proteins were recovered with Laemmli sample buffer, separated by SDS-PAGE, and stained with the SOAT1 antibody. […] However, no protein was observed from control AC29 cells (lane (1)) or control beads (no Biotin-Beau-carrying beads) (lane (3)).
The microsomal fraction (500 µg protein in 100 µl buffer A) prepared from AC29 (SOAT-deficient CHO cells) or amgSOAT1-CHO cells using the Potter-type homogenizer as described above were mixed with 0.10% (v/v) Triton X-100 on ice for 10 min. Biotin-Beau (10 nmol)[11] was attached to acrylamide-based streptavidin beads (5.0 nmol)[39]. Microsomes (500 µg) prepared from AC29 cells or SOAT1-CHO cells were added to Biotin-Beau-carrying beads and mixed well at 4.0 °C for 1.0 h with a rotator. The beads were collected by centrifugation at 1,000 rpm at 4.0 °C for 5.0 min and washed three times with PBS (300 µl). […] After separation by SDS-PAGE, SOAT1 protein levels was measured as described above.

SOAT2 [2] = target: T2, SOAT2 (Chlorocebus aethiops, UniProt O77759); details: cell-based assay; African green monkey; cited from earlier work
T2 construct: expressed in transfected cells; host or cells: CHO cells (AC29, SOAT-deficient)
T2 sequence (O77759 1-526): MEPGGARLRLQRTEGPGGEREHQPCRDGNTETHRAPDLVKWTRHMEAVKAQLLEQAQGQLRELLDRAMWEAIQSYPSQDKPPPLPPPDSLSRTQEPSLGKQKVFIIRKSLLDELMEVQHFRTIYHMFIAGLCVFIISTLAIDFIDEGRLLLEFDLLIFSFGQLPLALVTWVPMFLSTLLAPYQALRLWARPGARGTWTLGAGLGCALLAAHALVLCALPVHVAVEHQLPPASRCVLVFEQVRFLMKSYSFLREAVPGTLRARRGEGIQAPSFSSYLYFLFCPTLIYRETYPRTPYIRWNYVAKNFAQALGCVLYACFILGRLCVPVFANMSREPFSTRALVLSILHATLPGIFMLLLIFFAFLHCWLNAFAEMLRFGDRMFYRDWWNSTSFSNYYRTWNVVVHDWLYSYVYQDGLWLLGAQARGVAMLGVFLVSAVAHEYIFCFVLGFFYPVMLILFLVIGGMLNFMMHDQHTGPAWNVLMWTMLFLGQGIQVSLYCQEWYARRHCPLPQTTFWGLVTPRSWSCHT

SOAT1 [3] = target: T1, SOAT1; details: enzyme-based assay; African green monkey; cited from earlier work
SOAT1 [4] = target: T3, SOAT1 (Mus musculus, UniProt Q61263); assay: Immunofluorescence staining of SOAT1 and Biotin-Beau in mouse peritoneal macrophages; assay type: cell-based; details: Biotin-Beau 9.8 µM
T3 construct: endogenous in cells; host or cells: primary mouse peritoneal macrophages (ICR mice)
T3 sequence (Q61263 1-540): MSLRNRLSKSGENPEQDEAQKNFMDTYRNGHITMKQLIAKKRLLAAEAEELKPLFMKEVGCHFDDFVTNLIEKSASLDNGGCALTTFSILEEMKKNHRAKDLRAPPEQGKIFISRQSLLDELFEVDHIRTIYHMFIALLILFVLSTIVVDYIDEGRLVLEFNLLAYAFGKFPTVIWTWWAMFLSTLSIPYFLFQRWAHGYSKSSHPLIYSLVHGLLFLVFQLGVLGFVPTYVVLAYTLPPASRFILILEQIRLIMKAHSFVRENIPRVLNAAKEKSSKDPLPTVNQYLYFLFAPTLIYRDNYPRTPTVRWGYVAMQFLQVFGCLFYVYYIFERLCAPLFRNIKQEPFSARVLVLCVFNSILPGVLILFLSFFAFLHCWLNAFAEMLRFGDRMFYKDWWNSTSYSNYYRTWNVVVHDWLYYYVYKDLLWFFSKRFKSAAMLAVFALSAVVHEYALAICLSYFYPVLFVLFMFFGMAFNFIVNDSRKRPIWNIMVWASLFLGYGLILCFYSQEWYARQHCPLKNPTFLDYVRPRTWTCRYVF
Source text: Supplementary Experiment Methods
Goat anti-rabbit IgG conjugated to fluorescein isothiocyanate (FITC) was purchased from Sigma-Aldrich (St. Louis, MO). Hank’s balanced salt solution was purchased from Nissui Seiyaku (Tokyo, Japan). Streptavidin conjugated to Alexa Fluor 546 was purchased from Thermo Fisher Scientific (Wa l t h a m , M A). […]
Immunofluorescence staining of SOAT1 and Biotin-Beau in mouse peritoneal […]
Mouse peritoneal macrophages from ICR mice (Japan SLC, Inc., Japan) were prepared as described previously1. Briefly, primary mouse peritoneal macrophages (2.0 x 10^5 cells) with liposomes in each well of a tissue culture chamber (LAB-TEK 8-chamber) were incubated at 37°C in 5.0% CO 2. After a 14-h incubation, cells were washed three times with PBS, fixed with 3.7% formalin for 10 min, and permeabilized with PBS containing 0.10% Tr i t o n X-100 at room temperature for 20 min. […]
After a 1-h incubation, cells were stained with the secondary antibody, a goat anti-rabbit IgG conjugated to FITC ([…]) and streptavidin conjugated to Alexa Fluor 546 (1.0 µg/ml) in blocking buffer, for 1.0 h. Cells were washed three times after the incubation and analyzed with confocal laser scanning microscopy (LSM-510 META, Carl Zeiss, Germany). Images were analyzed with a Zeiss LSM Image Browser (Version 3.5.0.376) […]

SOAT1 [5] = target: T1, SOAT1; details: cited from earlier work
SOAT2 [6] = target: T2, SOAT2; details: enzyme-based assay; African green monkey; cited from earlier work
SOAT2 [7] = target: T4, SOAT2 (Homo sapiens, UniProt O75908); assay: Enzyme-based SOAT assay, microsomes from hSOAT2-CHO cells (Potter-type homogenizer); assay type: biochemical
T4 construct: expressed in transfected cells; host or cells: CHO cells (AC29, SOAT-deficient)
T4 sequence (O75908 1-522): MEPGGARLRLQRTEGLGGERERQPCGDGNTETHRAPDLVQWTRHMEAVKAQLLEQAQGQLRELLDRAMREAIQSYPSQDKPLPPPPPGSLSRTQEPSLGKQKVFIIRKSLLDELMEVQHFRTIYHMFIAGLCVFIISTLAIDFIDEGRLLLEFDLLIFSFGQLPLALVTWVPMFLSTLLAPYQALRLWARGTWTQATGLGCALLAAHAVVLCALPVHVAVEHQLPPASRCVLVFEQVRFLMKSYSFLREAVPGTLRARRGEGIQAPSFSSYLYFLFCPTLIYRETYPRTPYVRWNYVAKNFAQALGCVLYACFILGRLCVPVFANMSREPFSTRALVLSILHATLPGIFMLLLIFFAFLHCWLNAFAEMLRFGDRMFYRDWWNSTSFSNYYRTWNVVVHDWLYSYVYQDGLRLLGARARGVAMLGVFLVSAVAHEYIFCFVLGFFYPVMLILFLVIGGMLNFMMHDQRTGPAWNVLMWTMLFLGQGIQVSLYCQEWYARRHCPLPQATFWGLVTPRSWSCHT
Experimental: An enzyme source from SOAT1-/SOAT2-CHO cells using a Potter-type homogenizer was prepared using our established method[18]. Briefly, SOAT1 or SOAT2-CHO cells (2.0 × 10^8 cells) were homogenized in 5 ml cold buffered sucrose solution (pH 7.2, 100 mM sucrose, 50 mM KCl, 40 mM KH2PO4, and 30 mM EDTA, hereafter referred to as Buffer A) including protease inhibitors (Complete mini (Roche)) in the Potter-type homogenizer. The microsomal fraction was pelleted by centrifugation at 100,000 × g at 4.0 °C for 1.0 h (TLA110, Beckman Coulter), resuspended in the same buffer at a concentration of 5.0 mg protein/ml, and stored at −80 °C until used.
SOAT1 and SOAT2 activities were measured using fractionation prepared as described above as an enzyme source[18]. Briefly, an assay mixture was made containing 500 µg BSA (fatty acid free) and [1-^14C]oleoyl-CoA (20 µM, 3.7 kBq). A test sample (5.0 µl in methanol solution) and microsomes or the ER fractionation of SOAT1- and SOAT2-CHO cells in a total volume of 200 µl Buffer A was incubated at 37 °C. The SOAT reaction was started by adding [1-^14C]oleoyl-CoA. After a 5-min incubation, the reaction was stopped by adding chloroform: methanol (2:1, 1.2 ml). […] After the organic solvent was removed by evaporation, lipids were separated on a TLC plate and the radioactivity of [^14C]CE was measured by our established method[18].

SOAT2 [8] = target: T4, SOAT2; assay: [14C]CE synthesis in intact hSOAT2-CHO cells (cell-based assay)
Experimental: CHO cells (AC29 cells, SOAT-deficient cells)[37] expressing the SOAT1 or SOAT2 gene from African Green monkeys and humans were cultured by the method described previously.
The assay for the synthesis of [^14C]cholesteryl ester (CE) from [^14C]oleic acid in intact SOAT1- or SOAT2-CHO cells was performed according to our established method.

atherosclerotic lesions = system: atherosclerotic lesions; parameters: method as in PMID 17803269, PMID 14718664; details: orally active; apolipoprotein E knockout mice and low density lipoprotein receptor knockout mice; cited from earlier work

Compound: CC(C)c1cc(C(C)C)c(CC(=O)NS(=O)(=O)Oc2c(C(C)C)cccc2C(C)C)c(C(C)C)c1 [avasimibe]
group of SOAT inhibitor from SI values (SOAT1 and SOAT2): dual inhibitors (dual inhibitors (−1.00 ≤ SI ≤+1.00) inhibiting SOAT1 and SOAT2)

Compound: CSc1cc(C)nc(SC)c1NC(=O)CN1CCN(CCSc2nc3ccccc3[nH]2)CC1 [K-604]
group of SOAT inhibitor from SI values (SOAT1 and SOAT2): SOAT1-selective inhibitors (SOAT1-selective inhibitors (SI, <−1.00))

Compound: CCCCCCCCN1CCc2c(C)c(CC(=O)O)c(C)c(NC(=O)C(C)(C)C)c21 [pactimibe]
group of SOAT inhibitor from SI values (SOAT1 and SOAT2): dual inhibitors (dual inhibitors (−1.00 ≤ SI ≤+1.00) inhibiting SOAT1 and SOAT2)

binding to SOAT1 protein (SOAT1 [1]): bound to the SOAT1 protein
binding to SOAT1 protein (SOAT1 [1]; listed as Biotin-Beau): directly binds to the SOAT1 protein
Compound: CCCC[C@H](C)[C@@H]1CC(=O)N[C@@H](C(c2ccccc2)c2ccccc2)C(=O)N[C@H](Cn2cc(CNC(=O)CCCCNC(=O)CCCC[C@@H]3SC[C@@H]4NC(=O)N[C@@H]43)nn2)C(=O)N[C@H](C2CCCCC2)C(=O)O1 [Biotin-labeled beauveriolide]
IC50 (SOAT2 [2]): > 10 µM
IC50 (SOAT1 [3]): 0.6 µM
SI (type) (SOAT1 [3]): SOAT1 (SOAT1-selective type, SI < −1.00)
cellular localization relative to SOAT1 (SOAT1 [4]): colocalized with a restricted area of SOAT1 protein distribution
effect on CE synthesis (SOAT1 [5]; cell-based assay using SOAT1-/SOAT2-CHO cells): no effect on CE synthesis
IC50 (SOAT1 [5]; cell-based assay, African green monkey): > 10 µM
IC50 (SOAT2 [6]): 8 µM

Compound: CCCC[C@H](C)[C@@H]1CC(=O)N[C@@H](Cc2ccccc2)C(=O)N[C@@H](C)C(=O)N[C@H](CC(C)C)C(=O)O1 [Beauveriolide I]
IC50 (SOAT2 [7]): 1100 nM
IC50 (SOAT2 [8]): > 20 µM
IC50 (SOAT2 [6]): 1.9 µM

Compound: CCCC[C@H](C)[C@@H]1CC(=O)N[C@@H](Cc2ccccc2)C(=O)N[C@@H](C)C(=O)N[C@H]([C@@H](C)CC)C(=O)O1 [Beauveriolide III]
effect on atherosclerotic lesions (atherosclerotic lesions): reducing atherosclerotic lesions in the aortae and hearts
